Counter-ions that a name gives are not always drawn. Like-named read-outs stand apart in the source and are kept apart here.
Legend:
HIV protease = target: T1, HIV protease (Human immunodeficiency virus type 1 group M subtype B, UniProt P04585); test: HIV Protease Assay; format: biochemical
T1 construct: and purified protease
Outline: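 At a single final concentration of 10 μM (4% DMSO), inhibitors were added to a 30-minute, 37° C reaction of purified enzyme with 450 μM H2N-Val-Ser-Gln-Asn-(β-naphthyl-alanine)-Pro-Val-Ile-OH at pH 5.5 (sodium acetate, BSA). Hydrolysis was quantified by reverse-phase HPLC with 220 nm detection after acid quench.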

[1] = system: RF strain of HIV (CEM-SS cells); test: Cell Culture Anti-HIV Activity (cell viability, formazan); format: cell-based; details: Human immunodeficiency virus 1, CEM-SS, 144 h, CEM-SS cells, RF strain of HIV, multiplicity of infection 0.04, 6 days at 37° C., 450 nm; read-out: HIV (CEM Cells) IC50
Outline: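 Half-log compound dilutions added to CEM-SS cells (5000/well) carrying HIV RF (MOI 0.04), 6 days, 37° C. Cell protection measured as formazan from tetrazolium, A450. IC50: drug level restoring infected-cell formazan to 50% of the uninfected untreated control.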

[2] = pH 5.5, 10 μM inhibitor, 4% DMSO, 450 μM substrate, pH 5.5, 30 minutes at 37° C., RP-HPLC, read-out: HIV Protease % Inhibition at 10 μM

Compound `CC(C)(C)OC(=O)N[C@@H](Cc1ccccc1)[C@H](O)CNC[C@@H](O)[C@H](Cc1cccc(OCc2ccccc2)c1)NC(=O)OC(C)(C)C` [Compound 28, [1S-[1R*,2S*(2S*,3R*)]]-[3-[[3-[[(1,1-Dimethylethoxy)-carbonyl]amino]-2-hydroxy-4-phenylbutyl]amino]-2-hydroxy-1-[[3-(phenylmethoxy)phenyl]methyl]propyl]carbamic acid, 1,1-dimethylethyl ester] has an inhibition at 10 µM (HIV protease; [2]) of 100% and an IC50 [1] of 90 nM.

`CC[C@H](C)[C@H](NC(=O)OC(C)(C)C)[C@H](O)CNC[C@@H](O)[C@@H](NC(=O)OC(C)(C)C)[C@@H](C)CC` [Compound 13, [R-(R*,S*)]-[Iminobis[2-hydroxy-1-(1-methylpropyl)-3,1-proyanediyl]]biscarbamic acid, 1,1-dimethylethyl ester] was tested, and the inhibition at 10 µM (HIV protease; [2]) was 45% and the IC50 [1] was 5300 nM.

Work on `CC(C)(C)OC(=O)N[C@@H](Cc1ccccc1)[C@H](O)CNC[C@@H](O)[C@H](Cc1ccccc1)NC(=O)C(NC(=O)OCc1ccccc1)C(C)(C)O` (single isomer, unassigned; isomer b) [Compound 302, [1S-[1R*,2S*(2S*,3R*)]]-[1-[[[3-[[(1,1-Dimethylethoxy)carbonyl]amino]-2-hydroxy-4-phenylbutyl]amino]-2-hydroxy-1-(phenylmethyl)propyl]amino]carbonyl]-2-hydroxy-2-methylpropyl]carbamic acid, phenylmethyl ester, isomer B] yielded an inhibition at 10 µM (HIV protease; [2]) of 99% and an IC50 [1] of 250 nM.

Compound `CC(C)[C@H](NC(=O)OC(C)(C)C)C(=O)N[C@@H](Cc1ccccc1)[C@H](O)CNC[C@@H](O)[C@H](Cc1ccccc1)NC(=O)[C@@H](NC(=O)OC(C)(C)C)C(C)C` [Compound 34, [S-(1R*,2S*)]-N,N'-[Iminobis[2-hydroxy-1-(phenylmethyl)-3,1-propanediyl]]bis[N^2-[(1,1-dimethylethoxy)carbonyl]-L-valinamide]] has an inhibition at 10 µM (HIV protease; [2]) of 20% and an IC50 [1] of over 9000 nM.

For `COC(C(=O)N[C@@H](Cc1ccccc1)[C@H](O)CNC[C@@H](O)[C@H](Cc1ccccc1)NC(=O)OC(C)(C)C)C(C)(C)C` (stereo partly drawn) [Compound 325, [1S-[1R*,2S*(2S*,3R*)]]-[2-Hydroxy-3-[[2-hydroxy-3-[(2-methoxy-3,3-dimethyl-1-oxobutyl)amino]-4-phenylbutyl]amino]-1-(phenylmethyl)-propyl]carbamic acid, 1,1-dimethylethyl ester], the inhibition at 10 µM (HIV protease; [2]) was 90% and the IC50 [1] was 1540 nM.

For `CC(OC(=O)N[C@@H](Cc1ccccc1)[C@H](O)CNC[C@@H](O)[C@H](Cc1ccccc1)NC(=O)OC(C)(C)C)c1cccnc1` (stereo partly drawn) [Compound 258, [R-(R*,S*)]-[Iminobis[2-hydroxy-1-(phenylmethyl)-3,1-propanediyl)]biscarbamic acid. 1,1-dimethylethyl-1-(3-pyridinyl)ethyl ester], the inhibition at 10 µM (HIV protease; [2]) was 91% and the IC50 [1] was 1500 nM.

`CC(C)[C@H](NC(=O)[C@@H](O)Cc1ccccc1)C(=O)N[C@@H](Cc1ccccc1)[C@H](O)CNC[C@@H](O)[C@H](Cc1ccccc1)NC(=O)OC(C)(C)C` [Compound 77, [S-[1R*,2S*(2S*,3R*,N^2 R*]]-N-[3-[[3-[[(1,-Dimethylethoxy)carbonyl]amino]-2-hydroxy-4-phenylbutyl]amino]-2-hydroxy-(phenyyl-methyl)propyl]N^2-(2-hydroxy-1-oxo-3-phenyl-propyl)-L-valinamide] was tested, and the inhibition at 10 µM (HIV protease; [2]) was 99% and the IC50 [1] was 200 nM.

For `CC(C)(C)OC(=O)N[C@@H](Cc1ccccc1)[C@H](O)CNC[C@@H](O)[C@H](Cc1ccccc1)NC(=O)SC(C)(C)C` [Compound 184, [1S-[1R*,2S*(2S*,3R*)]]-[3-[[3-[[[(1 1-Dimethylethyl)thio)carbonyl]amino]-2-hydroxy-4-phenylbutyl]amino]-2-hydroxy-1-(phenylmethyl)-propyl]carbamic acid, 1,1-dimethylethyl ester], the inhibition at 10 µM (HIV protease; [2]) was 99% and the IC50 [1] was 1300 nM.

Work on `CC(C)[C@H](NC(=O)OCc1ncc[nH]1)C(=O)N[C@@H](Cc1ccccc1)[C@H](O)CNC[C@@H](O)[C@H](Cc1ccccc1)NC(=O)OC(C)(C)C` (relative stereo) [Compound 249, [1R*,2S*(2S*,3R*)]-N-[3-[[3-[[(1,1-Dimethylethoxy)carbonyl]amino]-2-hydroxy-4-phenylbutyl]amino]-2-hydroxy-1-(phenylmethyl)propyl]-N^2-[(1H-imidazol-2-ylmethoxy)carbonyl]-L-valinamide, acetate (2:3) salt] yielded an inhibition at 10 µM (HIV protease; [2]) of 100% and an IC50 [1] of 840 nM.

For `CC(C)(C)OC(=O)N[C@@H](Cc1ccccc1)[C@H](O)CNC[C@@H](O)[C@H](Cc1ccccc1)NC(=O)OC1(C)CCC1` [Compound 160, [1S-(1R*,2S*)]-[Iminobis[2-hydroxy-1-(phenylmethyl)-3,1-propanediyl]]bis[carbamic acid], 1,1-dimethylethyl-1-methylcyclobutyl ester], the inhibition at 10 µM (HIV protease; [2]) was 99% and the IC50 [1] was 80 nM.

`COC(=O)N[C@H](C(=O)N[C@@H](Cc1ccccc1)[C@H](O)CNC[C@@H](O)[C@H](Cc1ccccc1)NC(=O)OC(C)(C)C)C(C)(C)C` (relative stereo) [Compound 246, [1R*,2S*(2S*,3R*)]-N-[3-[[3-[[(1,1-Dimethylethoxy)carbonyl]amino]-2-hydroxy-4-phenylbutyl]amino]-2-hydroxy-1-(phenylmethyl)propyl]-N^2-(2-methoxycarbonyl)-3-methyl-L-valinamide] showed an inhibition at 10 µM (HIV protease; [2]) of 100% and an IC50 [1] of 40 nM.

`CC(C)[C@H](NC(=O)[C@@H](N)CO)C(=O)N[C@@H](Cc1ccccc1)[C@H](O)CNC[C@@H](O)[C@H](Cc1ccccc1)NC(=O)OC(C)(C)C` (relative stereo) [Compound 212, [1R*,2S*(2S*,3R*)]-N-[N-[3-[[3-[[(1,1-Dimethylethoxy)carbonyl]amino]-2-hydroxy-4-phenylbutyl]amino]-2-hydroxy-1-(phenylmethyl)propyl]-L-valyl]-L-serinamide, fumarate (2:3) salt] gave an inhibition at 10 µM (HIV protease; [2]) of 99% and an IC50 [1] of 3800 nM.

`CC(C)(C)OC(=O)N[C@@H](Cc1ccccc1)[C@H](O)CNC[C@@H](O)[C@H](Cc1ccccc1)NC(=O)[C@@H](NC(=O)OCc1ncc(-c2ccccc2)o1)C(C)(C)C` [Compound 347, [S-(1R*,2S*(2S*,3R*)]]-[2,2-Dimethyl-1-[[[3-[[3-[[1,1-dimethylethoxy)-carbonyl]amino]-2-hydroxy-4-phenylbutyl]amino]-2-hydroxy-1-(phenylmethyl)propyl]amino]carbonyl]-propyl]carbamic acid, (5-phenyl-2-oxazolyl)methyl ester] was tested, and the inhibition at 10 µM (HIV protease; [2]) was 99% and the IC50 [1] was 50 nM.

`CC(C)[C@H](NC(=O)CCn1[nH]c2ccccc2c1=O)C(=O)N[C@@H](Cc1ccccc1)[C@H](O)CNC[C@@H](O)[C@H](Cc1ccccc1)NC(=O)OC(C)(C)C` (relative stereo) [Compound 250, [1R*,2S*(2S*,3R*)]-N^2-[3-(1,3-Dihydro-3-oxo-2H-indazol-2-yl)-1-oxopropyl]-N-[3-[[3-[[(1,1-dimethylethoxy)carbonyl]amino]-2-hydroxy-4-phenylbutyl]amino]-2-hydroxy-1-(phenylmethyl)propyl]-L-valinamide] was tested, and the inhibition at 10 µM (HIV protease; [2]) was 100% and the IC50 [1] was 1500 nM.

In the case of `CC(C)(C)OC(=O)N[C@@H](Cc1ccccc1)[C@H](O)CNC[C@@H](O)[C@H](Cc1ccccc1)NC(=O)[C@H](CC(N)=O)NC(=O)OCc1ccccc1` [Compound 53, [1S-[1R*,2S*(2S*3R*)]]-N-[3-[[3[[(1,1-Dimethylethoxy)-carbonyl]amino]-2-hydroxy-4-phenylbutyl]amino]-2-hydroxy-1-(phenylmethyl)propyl]-N^2 [(phenylmethoxy)-carbonyl]-L-aspartamide], the inhibition at 10 µM (HIV protease; [2]) is reported as 99% and the IC50 [1] is reported as 540 nM.

Work on `CC(C)(C)OC(=O)N[C@@H](Cc1ccccc1)[C@H](O)CNC[C@@H](O)[C@H](Cc1ccncc1)NC(=O)OC(C)(C)C` [Compound 30, [1S-[1R*,2S*(2S*,3R*)]]-[3-[[3-[[(1,1-Dimethylethoxy)-carbonyl]amino]-2-hydroxy-4-phenylbutyl]amino]-2-hydroxy-1-(4-pyridinylmethyl)propyl]carbamic acid, 1,1-dimethylethyl ester] yielded an inhibition at 10 µM (HIV protease; [2]) of 97% and an IC50 [1] of 500 nM.

`CC(C)(C)OC(=O)N[C@@H](Cc1ccccc1)[C@H](O)CNC[C@@H](O)[C@H](Cc1ccc(OCCn2ccnc2)cc1)NC(=O)OC(C)(C)C` [Compound 290, [1S-[1R*,2S*(2S*,3R*)]]-[3-[[3-[[(1,1-Dimethylethoxy)carbonyl]amino]-2-hydroxy-4-[4-[2-(1H-imidazol-1-yl)-ethoxy]phenyl]butyl]amino]-2-hydroxy-1-(phenylmethyl)-propyl]carbamic acid, 1,1-dimethylethyl ester] was tested, and the inhibition at 10 µM (HIV protease; pH 5.5, read-out: HIV Protease % Inhibition at 10 μM) was 99% and the IC50 [1] was 60 nM.

`CC(C)(C)OC(=O)N[C@@H](Cc1ccccc1)[C@H](O)CNC[C@@H](O)[C@H](Cc1ccccc1)NC(=O)C(NC(=O)OCc1ccccc1)C(F)(F)F` (stereo partly drawn) [Compound 328, [1S-[1R*,2S*(2S*,3R*)]]-[2-[[3-[[3-[[(1,1-Dimethylethoxy)carbonyl]amino]-2-hydroxy-4-phenylbutyl]amino]-2-hydroxy-1-(phenylmethyl)propyl]amino]-2-oxo-1-(trifluoromethyl)ethyl]carbamic acid, phenylmethyl ester] gave an inhibition at 10 µM (HIV protease; [2]) of 99% and an IC50 [1] of 540 nM.

Reference: patent publication US5760036A, “Aminediol protease inhibitors” (E. R. Squibb & Sons, Inc., priority 1995, dated 1998)
